Assay results taken from patent publication US20030158250A1, “Agents correcting gene expression regulatory error” (priority 2000, published 2003).

Columns and labels:
TNFα = assay: LPS-stimulated TNFα production in monocytes (ELISA); format: cell-based; conditions: human monocytes, final concentration 50 μM, 100 μM or 200 μM, 5 hours, then LPS 4 hours
Procedure: PBMCs were isolated in the same manner as in item (1) of Example 4. PBMCs were suspended in RPMI 1640 medium containing 5% human serum of blood type-AB, 0.1 mM nonessential amino acid, 1 mM sodium pyruvate, 2 mM L-glutamine (hereinabove manufactured by Bio Whittaker), 10 mM HEPES (manufactured by nakalai tesque), and 1% streptomycin-penicillin (manufactured by Gibco BRL) (hereinafter simply referred to as “5HRPMI medium”) so as to have a concentration of 2×10^6 cells/ml. Thereafter, the suspension was spread on a 24-well cell culture plate (manufactured by Falcon) in a volume of 1 ml/well, and the cells were incubated in a wet-type incubator at 37° C. and 5% CO2 for 1.5 hours. After 1.5 hours, the non-adherent cells were removed by suction, and each well was washed with RPMI 1640 medium, and 1 ml of the 5HRPMI medium was added to the wells, to give monocytes.
To the monocytes obtained above was added in each well 10 μl of a 1 mM, 2 mM or 4 mM aqueous DGE solution (each having a final concentration of 10 μM, 20 μM or 40 μM), or a 5 mM, 10 mM or 20 mM aqueous agarobiose solution (each having a final concentration of 50 μM, 100 μM or 200 μM), or 10 μl of water as a control (i.e. each of concentrations of DGE and agarobiose being 0 μM), and the cells were incubated in a wet-type incubator at 37° C. and 5% CO2 for 5 hours. […]

HO1 protein = HO1 protein induction in RAW 264.7 cells (Western blot); format: cell-based; design: key to Intensity of Bands of HO1 Protein: those showing no bands are indicated by “−,”; the intensities of the bands are indicated by +−, +, ++ in the ascending order of the intensities of the bands; the intensities of the bands are indicated by +−, +, ++ in the ascending order of the intensities of the bands; the intensities of the bands are indicated by +−, +, ++ in the ascending order of the intensities of the bands; conditions: for induction action for HO production (band ascribed to HO1 protein): 15 hours, DGE at 10 to 40 μM
Procedure: RAW 264.7 cells (ATCC TIB 71) were suspended in a Dulbecco's modified Eagle's medium (manufactured by Bio Whittaker; 12-604F) containing 10% fetal bovine serum (manufactured by Gibco), so as to have a concentration of 3×10^5 cells/ml. The cell suspension was added to each well of a 6-well microtiter plate in a volume of 5 ml each. The cells were cultured at 37° C. in the presence of 5% CO2 gas overnight. To each well was added 50 μl of 4 mM, 2 mM or 1 mM DGE aqueous solution (each of final concentrations: 40 μM, 20 μM or 10 μM), and the cells were cultured for 15 hours. […] The cells were harvested by peeling off the cells from the plate with a scraper. The harvested cells were suspended in 0.1 M Tris-HCl buffer (pH 7.5) containing 0.05 mM pepstatin (manufactured by Sigma, P5318), 0.2 mM leupeptin (manufactured by Sigma, L2884), 1 mM phenylmethylsulfonyl fluoride (manufactured by nakalai tesque, 273-27), 10 mM disodium dihydrogenethylenediaminetetraacetate and 0.1% Triton X-100, and subjected to freezing and thawing once. Thereafter, the supernatant obtained by centrifugation was used as a protein fraction. The protein content in the protein fraction was assayed by Micro BCA Protein Assay Reagent (one manufactured by Pierce sold by Takara Shuzo Co., Ltd., P7411). Each of the resulting protein fraction samples was mixed with an equal volume of 0.125 M Tris-HCl buffer (pH 6.8) containing 4% sodium lauryl sulfate (SDS), 2% 2-mercaptoethanol,
0.001% Bromophenol Blue and 20% glycerol, and the mixture was treated at 100° C. for 5 minutes. A mixture containing a protein in an amount of 10 μg or so was loaded on 12.5% SDS-polyacrylamide gel, and electrophoresed with a constant current of 20 mA. In a blotting buffer containing 48 mM Tris, 39 mM glycine, 20% methanol, 0.0375% SDS, the gel after the electrophoresis was transferred to a PDVF membrane (manufactured by Millipore Corporation, IPVHOOO 10) in accordance with the attached protocol, using transblot SD cell semi-drive blotting device (manufactured by BioRad), at a constant voltage of 15 V for 25 minutes. The transferred PVDF membrane was blocked overnight in a Block Ace (manufactured by DAINIPPON PHARMACEUTICAL CO., LTD., UK-B25) solution at 4° C. The blocked membrane was washed for 15 minutes thrice with phosphate-buffered physiological saline containing 0.1% Tween 20 under gentle shaking. Thereafter, the membrane was subjected to the reaction under gentle shaking in phosphate-buffered physiological saline containing 10% Block Ace with a 200 ng/ml anti-HOl antibody (N-19, manufactured by Santa Cruz, sc-7696) and 0.1% Tween 20 at room temperature for 1 hour, and was washed for 15 minutes thrice with phosphate-buffered physiological saline containing 0.1% Tween 20 under gentle shaking. Next, the membrane was subjected to the reaction under gentle shaking in phosphate-buffered physiological saline with 10% Block Ace with 0.1% peroxidase-conjugated rabbit anti-goat IgG (H+L) antibody (manufactured by Zymed, 61-1620) and 0.1% Tween 20 at room temperature for 1 hour, and was washed for 15 minutes five times with phosphate-buffered physiological saline containing 0.1% Tween 20 under gentle shaking. Subsequently, a PVDF membrane was stained by using Western blot Chemiluminescence Reagent Plus (one manufactured by NEN Life Science Products sold by Daiichikagaku, NEL103) in accordance with the attached protocol, and sensitized on an X-ray film (manufactured by Kodak, CAT 1651454). The sensitized film was developed with FPM800 (manufactured by Fuji Photo Film Co., Ltd.).
As a result, there could be confirmed a band ascribed to HO1 protein in the group with addition of DGE. […] In the table, + symbols were given in accordance with the intensity of the band for HO1 protein. In other words, in Table 3, those showing no bands are indicated by “−,” and the intensities of the bands are indicated by +−, +, ++ in the ascending order of the intensities of the bands.

interleukin-10 (IL-10) = assay: LPS-induced IL-10 production in RAW 264.7 cells (ELISA); format: cell-based; conditions: final concentration 20 μM, 5 hours, then LPS 18 hours, IL-10 in culture supernatant by ELISA
Procedure: RAW 264.7 cells (ATCC TIB 71) were suspended in a Dulbecco's modified Eagle's medium (manufactured by Bio Whittaker; 12-604F) containing 10% fetal bovine serum (manufactured by Gibco), so as to have a concentration of 3×10^5 cells/ml. The cell suspension was added to each well of a 48-well microtiter plate in a volume of 0.5 ml each. The cells were cultured at 37° C. in the presence of 5% CO2 gas overnight. To each well was added 5 μl of a 2 mM DGE aqueous solution (final concentration: 20 μM), and the cells were cultured for additional 5 hours. Thereafter, 5 μl of a 100 μg/ml lipopolysaccharide (LPS, manufactured by Sigma, L-2012) aqueous solution was added thereto, and the cells were cultured for 18 hours, and thereafter the culture supernatant was recovered. The content of the interleukin-10 (IL-10) in the culture supernatant was assayed by the enzyme immuno-sandwich assay. Here, the group with no addition of DGE and LPS aqueous solution (control) was set as a negative control, and the group with addition of LPS aqueous solution (control+LPS) alone was set as a positive control. In addition, all of the assays were carried out twice.

interleukin-6 (IL-6) = assay: TPA-induced IL-6 production in peritoneal macrophage (ELISA); format: cell-based; conditions: mouse peritoneal macrophage, final concentrations 20 μM and 10 μM, 14 hours, IL-6 in culture supernatant by ELISA
Procedure: Four milliliters of a 10% fetal bovine serum-containing RPMI 1640 medium (manufactured by Bio Whittaker, 12-702F) was intraperitoneally injected to ddy mouse (Nippon SLC, female, 7-weeks old), and the mouse was well massaged, and the medium was taken out to obtain peritoneal cells. The peritoneal cells were suspended in the 10% fetal bovine serum-containing RPMI 1640 medium so as to have a concentration of 10^6 cells/ml, and dispensed into 48-well microtiter plate in a volume of 500 μl each. The peritoneal cells were cultured at 37° C. for 2 hours in the presence of 5% CO2 gas. Thereafter, the culture supernatant was removed to give adherent cells to be used as peritoneal macrophage. To each well was freshly dispensed a Dulbecco's modified Eagle's medium (manufactured by Bio Whittaker; 12-917F) without phenol red containing 10% fetal bovine serum and 2 mM L-glutamine in a volume of 500 μl. […] The content of interleukin-6 (IL-6) in the culture supernatant was assayed by enzyme immuno-sandwich assay (ELISA: Matched antibody Pair SamplePak mouse IL-6, manufactured by Endogen). Here, the group with no addition of DGE and TPA aqueous solution (control) was set as a negative control, and the group with addition of TPA aqueous solution alone (control+TPA) was set as a positive control. In addition, all of the assays were carried out twice.

OC[C@H]1O[C@@H](O[C@H]2[C@H]3OC[C@@H]2OC(O)[C@H]3O)[C@H](O)[C@@H](O)[C@H]1O (mixture of isomers) [agarobiose]
inhibition of LPS-stimulated TNFα production (TNFα): inhibition

CCCCC/C=C/C=C1/C(=O)C=C[C@@H]1C/C=C\CCCC(=O)O [15-Deoxy-Δ12,14 prostaglandin J2, reference compound]
Intensity of Bands of HO1 Protein (HO1 protein; 5 μl of 3 mM dimethyl sulfoxide solution added to 5 ml well, positive control): ++

N[C@@H](CCC(=O)N[C@@H](CSC1CC2(O)OCC1OC2O)C(=O)NCC(=O)O)C(=O)O (stereo partly drawn) [DGE-GSH, 5-L-glutathion-S-yl-2-hydroxy-3,7-dioxabicyclo[2.2.2]octan-1-ol]
inhibition of LPS-induced IL-10 production (interleukin-10 (IL-10)): inhibitory action
inhibition of TPA-induced IL-6 production (interleukin-6 (IL-6)): inhibitory action
inhibitory activity for cancer cell proliferation (HL-60 cells): active
induction action for HO production (band ascribed to HO1 protein) (HO1 protein): induction action

O=C1C=CC(CO)OC1O [κ-DGE, D-Glycero-1,5-epoxy-1αβ,6-dihydroxy-cis-hex-3-en-2-one]
inhibition of LPS-induced IL-10 production (interleukin-10 (IL-10)): inhibitory action
inhibition of TPA-induced IL-6 production (interleukin-6 (IL-6); listed as K-DGE): inhibitory action
induction action for HO production (band ascribed to HO1 protein) (HO1 protein): induction action
